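Following 48 hours of exposure in 96-well plates, responses at five concentrations were used to interpolate endpoints linearly. GI50 = concentration required for 50% inhibition of growth. TGI denotes the concentration required for complete inhibition of growth.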
What was measured:
Experiment in all cases: NCI tumour cell line growth inhibition, 48 h
[1] = tested on: IGROV1 ovarian
[2] = tested on: SF-295 CNS
[3] = tested on: OVCAR-8 ovarian
[4] = tested on: SNB-19 CNS
[5] = tested on: RXF 393 renal
[6] = tested on: NCI/ADR-RES ovarian
[7] = tested on: SK-MEL-2 melanoma
[8] = tested on: KM12 colon
[9] = tested on: OVCAR-4 ovarian
[10] = tested on: SNB-75 CNS

Row | SMILES | GI50 [1] | TGI [1] | GI50 [2] | TGI [2] | GI50 [3] | TGI [3] | GI50 [4] | TGI [4] | GI50 [5] | TGI [5] | GI50 [6] | TGI [6] | GI50 [7] | TGI [7] | GI50 [8] | TGI [8] | GI50 [9] | TGI [9] | GI50 [10] | TGI [10]
1 | NC(=O)c1c(NC(=O)c2ccc(C(F)(F)F)cc2Cl)sc2c1CCC(=O)C2 | 0.498 µM | 2.37 µM | 1.05 µM | 4.5 µM | 0.456 µM | 12.2 µM | 0.375 µM | 3.96 µM | 0.259 µM | 0.881 µM | 0.448 µM | 3.38 µM | 1.87 µM | 5.37 µM | 0.382 µM | 1.73 µM |  |  |  | 
2 | Nc1ccccc1SC(CC(=O)c1ccccc1)c1c(Cl)cccc1Cl (stereo not given) | 2.74 µM | 8.62 µM | 5.59 µM | 19.1 µM | 2.63 µM | 9.61 µM | 10.5 µM | 22.9 µM | 4.23 µM | 17.4 µM | 3.72 µM | 28.5 µM | 6.33 µM | 18.2 µM | 2.26 µM | 5.4 µM | 4.84 µM | 18.4 µM | 10.8 µM | 30.1 µM
3 | O=C(O)CC(CC(=O)O)n1cccc1 |  | > 100 µM |  | > 100 µM |  | > 100 µM |  | > 100 µM |  | > 100 µM |  | > 100 µM |  | > 100 µM |  | > 100 µM |  | > 100 µM |  | 
4 | CN(C)Cc1c[nH]c2nc[nH]c(=O)c12 |  | > 100 µM |  | > 100 µM |  | > 100 µM |  | > 100 µM |  | 45.9 µM |  | > 100 µM |  | > 100 µM |  | > 100 µM |  | > 100 µM |  | > 100 µM
5 | CN(COC(=O)C(C)(C)C)c1nc(N(C)COC(=O)C(C)(C)C)nc(N(C)COC(=O)C(C)(C)C)n1 |  | > 100 µM |  | > 100 µM |  |  |  | > 100 µM |  | 41.9 µM |  | > 100 µM |  | > 100 µM |  | > 100 µM |  | > 100 µM |  | > 100 µM
6 | COc1ccc(/C(=N/O)c2cc(F)c(F)c(OC)c2F)cc1O | 0.815 µM | > 100 µM | 0.392 µM | 18.2 µM | 3.1 µM | > 100 µM | 0.827 µM | > 100 µM |  |  | 0.309 µM | 19.1 µM | 0.421 µM | > 100 µM | 0.396 µM | > 100 µM | 9.1 µM | > 100 µM | 0.309 µM | > 100 µM
7 | O=C1C=CC(=O)N1c1ccc2ccccc2c1 | 16.6 µM | 52 µM | > 100 µM | > 100 µM | 19.2 µM | 42.3 µM | 38.4 µM | > 100 µM | 3.98 µM | 12.9 µM | 21.5 µM | 55.7 µM | 17.9 µM | 35.3 µM | 24.1 µM | 71 µM | 8.92 µM | 34.1 µM | 16.6 µM | 38.4 µM
8 | C=CC(=O)N1CCN(c2nc(OC[C@@H]3CCCN3C)nc3c(F)c(-c4nc(N)cc(C)c4C(F)(F)F)c(Cl)cc23)[C@@H](C)C1 | 1.7 µM | 3.54 µM | 4.74 µM | 16.9 µM | 1.64 µM | 3.09 µM | 3.44 µM | 12.8 µM | 1.07 µM | 2.5 µM | 12.8 µM | 27.8 µM | 2.05 µM | 4.34 µM | 2.11 µM | 4.56 µM | 1.59 µM | 3 µM | 1.22 µM | 2.74 µM
9 | O=C1OC(=O)c2c1cc1cc3c(cc1c2-c1ccc2c(c1)OCO2)OCO3 |  | > 100 µM |  | > 100 µM |  | > 100 µM |  | > 100 µM |  | > 100 µM |  | > 100 µM |  | > 100 µM |  | > 100 µM |  | > 100 µM |  | > 100 µM
10 | Cc1nc2sc(C(=O)Nc3cccc4c3OCCO4)c(N)c2cc1C(C)O (stereo not given) | 4.84 µM | > 100 µM | 5.04 µM | > 100 µM | 6.48 µM | > 100 µM | 6.8 µM | > 100 µM | 2.92 µM | > 100 µM | 3.28 µM | > 100 µM |  |  | 3.85 µM | > 100 µM | > 100 µM | > 100 µM | 1.81 µM | > 100 µM
11 | O=C(N/N=C/c1coc2ccc(Cl)cc2c1=O)c1cc(O)c(O)c(O)c1 | 44.5 µM | > 100 µM | 45.8 µM | > 100 µM | 18.6 µM | > 100 µM | 72.8 µM | > 100 µM | 34.9 µM | > 100 µM | 17.8 µM | 50.2 µM | > 100 µM | > 100 µM | 21.5 µM | 69.1 µM | 98.4 µM | > 100 µM | 72 µM | > 100 µM
12 | C[C@H]1CCC/C=C/[C@@H]2C[C@H](O)C[C@H]2[C@H](O)C(O)C(O)C(=O)O1 (stereo not given in full) | 2.96 µM | 11.7 µM | 4.66 µM | > 100 µM | 1.16 µM | 5.11 µM | 3.35 µM | > 100 µM | 2.52 µM | > 24.6 µM | 1.62 µM |  | 3.81 µM | > 23.9 µM | 0.396 µM | 1.38 µM |  |  | 0.578 µM | 
13 | O=C1c2ccccc2-n2c1nc1ccc([N+](=O)[O-])cc1c2=O |  | > 100 µM |  | 79.7 µM |  | 46.6 µM |  | > 100 µM |  | > 100 µM |  | > 100 µM |  |  |  | > 100 µM |  |  |  | 
14 | O=C1c2c[n+](Cc3ccccc3)ccc2-c2nc3ccccc3c3ccnc1c23 | 0.827 µM | 4.04 µM | 0.585 µM | 5.71 µM |  |  | 0.389 µM | 2.55 µM | 0.534 µM | 1.56 µM | 7.3 µM | 33.3 µM | 0.646 µM | 1.77 µM | 1.06 µM | 4.28 µM | 0.468 µM | 0.92 µM | 0.804 µM | 3.71 µM
15 | O=NN(CC(=O)NNc1ccccc1)CC(=O)NNc1ccccc1 | > 64 µM | > 100 µM | 2.34 µM | 7.81 µM | 9.88 µM | > 100 µM | > 100 µM | > 100 µM | > 100 µM | > 100 µM | 14.2 µM | > 100 µM | > 100 µM | > 100 µM | 0.893 µM | > 100 µM |  | > 100 µM | > 45.4 µM | > 100 µM

— PubChem BioAssay (NCI)
